From ChEMBL document CHEMBL1151205, “Terpene isocyanides, isocyanates, and isothiocyanates from the Okinawan marine sponge Stylissa sp” (J Nat Prod, 2004)

system: HeLa; assay: Cytotoxicity against human HeLa cells by WST-8 assay; format: functional, cell-based

In order of falling IC50:
1. C[C@H]1C[C@H]2CC(C)(C)CC3=CC[C@@]4(N=C=S)[C@@H]([C@@H]1CC[C@@H]4C)[C@@H]32  88.7 µM
2. CC1=C[C@@H]2[C@@H](CC1)[C@@](C)(N=C=S)CC[C@H]2C(C)C (relative stereo)  73.7 µM
3. C[C@H]1CC[C@]23[C@H]1[C@H]2[C@@H](C(C)(C)N=C=S)CC[C@@H]3C (relative stereo)  57.8 µM
4. C[C@H]1C[C@H]2CC(C)(C)CC3=CC[C@@]4(N=C=O)[C@@H]([C@@H]1CC[C@@H]4C)[C@@H]32  38.3 µM
5. [C-]#[N+][C@@]1(C)CC[C@H]2[C@@H]3[C@@H](C(C)=CC[C@@H]31)[C@@H](C=C(C)C)C[C@@H]2C (relative stereo)  20 µM
6. [C-]#[N+][C@@]12CC[C@H](C)C3=C(C=C(C)C)C[C@H](C)[C@@H](CC[C@@H]1C)[C@@H]32 (relative stereo)  11.2 µM
